Assay [1] deals with Heidenhain Pouch Dog. Nature of the assay: Gastric antisecretory activity in the Heidenhain Pouch Dog. The assay is classed as in vivo, dogs. The following applies: 95% confidence limits in parentheses; for ED50: Canis lupus familiaris. The protocol: Determination of Gastric Antisecretory […] in the Heidenhain Pouch Dog Prior to surgery, hematology and blood chemistry profiles are obtained and an assessment made as to the general health of selected female dogs. Dogs are vaccinated with Tissue […]-Moore) and housed in general animal quarters for four weeks' observation so incipient diseases may become apparent. Dogs are fasted with water ad libitum 24 hours prior to surgery. […] Subsequent anesthesia is maintained with methoxy- flurane (Pitman-Moore). A mid-line linea alba incision from xiphoid to umbilicus provides good exposure and ease of closure. The stomach is pulled up into the operative fields the greater curvature stretched out at multiple points and clamps placed along the selected line of incision. The pouch is made from the corpus of the stomach so that true parietal cell juice is obtained. About 30% of the corpus volume is resected. The cannula is made of light-weight, biologically-inert material such as nylon or Delrin with dimensions and attachments after DeVito and […] fJ. Appl. Physiol., 14, 138 (1959)]. Post operatively, dogs are medicated with antibiotics and an analgesic. They are allowed 2-3 months for recovery. Experiments are carried out in the following way: […] The dogs are placed in a sling and a saphenous vein cannulated for drug administration. Histamine as the base (100 μg/kg/hr) and chlorpheniramine maleate (0.25 mg/kg/hr) are infused continuously (in a volume of 6 mL/hr) with a Harvard infusion pump. Ninety minutes' infusion are allowed for the dogs to reach a steady state of acid output. At this time the drug or normal saline (control) is administered concomitantly with the secretagogue in a volume of 0.5 mL/kg over a 30 second period. When oral studies are to be carried out, the drug is administered via gastric gavage in a volume of 5 mL/kg. Infusion of the secretagogue is continued and 15 minute samples of the gastric juice are taken for 4.5 hours. Each sample is measured to the nearest 0.5 mL and titratable acidity is determined by titrating a 1 mL sample to pH 7.0 with 0.2N NaOH, using an Autoburet and an electrometric pH meter '(Radiometer). Titratable acid output is calculated in microequivalents by multiplying the volume in milliliters by the acid concentration in milliequivalents per liter. Results are expressed as percent inhibition relative to control readings. Dose response curves are constructed and ED50 values are calculated by regression analyses. From 3 to 5 dogs are used at each dose level and a minimum of three dosage levels are utilized for determination of a dose response curve.

For assay [2], the system named is gastric acid secretion. The assay is described as follows: Inhibition of gastric acid secretion relative to cimetidine, various animal studies. Type of assay: in vivo. The conditions noted are these: inhibitors of gastric acid secretion, oral route. The protocol:
Based on this potency difference, the oral dosage of the compounds of Examples 1 and 9 would be about 1/20 to 1/25 that of cimetidine, thus reducing the expected incidence of side effects. The usual oral dosage of cimetidine is 300 mg, given four times a day, while the usual dosage of the compounds of Examples 1 and 9 is about 12-15 mg, given four times a day. It was an object of this invention to further reduce the necessary dosage of the compounds of Formula I by the concomitant administration of a peptic activity- inhibitory amount of pepstatin. As will be shown below, such concomitant administration provides about a three-fold increase in potency compared with the administration of an equal amount of the compound of Formula I alone, thus permitting a further three-fold reduction in the dosage of the compound of Formula I.

Molecules are shown by their SMILES. Marks after values point to notes of the source that are not given here.

As a reminder, the ED50 is the dose at which the effect has come halfway, by size or by number of responders.

Turning to `Nc1c(NCCCOc2cccc(CN3CCCCC3)c2)c(=O)c1=O` [Example 1], the ED50 in assay [1] (INTRAVENOUS) worked out at 0.024 µmol/kg; in assay [1] (ORAL), 0.16 µmol/kg. Further, the results for the “Potency Ratio [cimetidine = 1.0]” value in assay [1] (INTRAVENOUS) and in assay [1] (ORAL) were 87 (62-117)* and 25 (14-40), respectively. For the same compound, the “times more potent than cimetidine” value in assay [2] was 20-25.
